Test results taken from patent publication US8101780B2, “Crystalline form of 3-(difluormethyl)-1-methyl-N-(3′,4′,5′-trifluor[1,1′-biphenyl]-2-yl)-1H-pyrazol-4-carboxamide” (BASF SE, priority 2007, dated 2012).

Key:
Format in all cases: physicochemical
[1] = Slurry examples: forms suspended in water at 30° C., stirred, XRD analysis; conditions: magnetic stirrer
Protocol: Slurry Examples Proving the Stability of Form B:
The form in question or mixtures of different forms of 3-(difluoromethyl)-1-methyl-N-(3′,4′,5′-trifluoro[1,1′-biphenyl]-2-yl)-1H-pyrazole-4-carboxamide were suspended in water at 30° C.

[2] = Formulation stability upon storage at 40° C. for one week (sedimentation, particle size, crystalline modification by DSC and PXRD); conditions: SC formulation
Protocol: The stability of the crystalline forms was tested by formulating form A or form B according to examples 1 and 2 and analyzing the formulation stability in the form of sedimentation, particle size growth and change in crystalline modification.
The obtained formulations were assessed for their stability upon storage at 40° C. for one week. Microscopic pictures of the formulation were taken before and after storage at 40° C. to examplify the change in particle size. Dispersion stability was assessed using a 2% dilution of the formulation in water in a conical cylinder. The sedimentation volume is recorded after 2 hours of standing. The sediment was collected and analysed using DSC and powder diffraction diffractometry to characterized the solid sediment (giving thus evidence of the sediment amount and crystalline modification present in the sedimentation).
This would in practice be very unfavourable and cause blocking of nozzle during the application and inhomogeneous distribution of the active ingredient into the formulation.

[3] = Phase conversion of the amorphous form at room temperature
Excerpt: The phase transformation can be seen for example in a DSC measurement or under a hot stage microscope.

SMILES	Conversion of solid form in water suspension (XRD analysis) ([1]; after 2 days)	Phase transformation of the formulated active ingredient (DSC and PXRD) [2]	Conversion of solid form in water suspension (XRD analysis) ([1]; after 1 day)	Conversion of solid form on standing [3]
Cn1cc(C(=O)Nc2ccccc2-c2cc(F)c(F)c(F)c2)c(C(F)F)n1 [form A, 3-(Difluormethyl)-1-methyl-N-(3′,4′,5′-trifluor[1,1′-biphenyl]-2-yl)-1H-pyrazol-4-carboxamide]	converted (based on XRD analysis) into form B	converted fully into needle like crystals of form B		
Cn1cc(C(=O)Nc2ccccc2-c2cc(F)c(F)c(F)c2)c(C(F)F)n1 [amorphous form, 3-(Difluormethyl)-1-methyl-N-(3′,4′,5′-trifluor[1,1′-biphenyl]-2-yl)-1H-pyrazol-4-carboxamide]			converted (based on XRD analysis) into form B	converts at room temperature slowly to crystalline form A or typically to mixtures of form A and form B
